Test results published in PMC5820046 (Internal Medicine, 2017).
Like-named read-outs stand apart in the source and are kept apart here.

Columns and labels:
patient [1] = settings: present case
plasma protein [2] = experiment: Plasma protein binding of DAP, present case; type: in vitro ADME, human; settings: patient plasma, DAP 7 mg/kg every 48 hours
patients [3] = settings: phase III clinical trials; cited from earlier work
T cells = settings: present case
patients [4] = settings: FDA adverse event reporting system, 2004 to 2010; cited from earlier work
[5] = present case, DAP 7 mg/kg every 48 hours, chronic renal failure, HPLC
[6] = healthy volunteers; DAP 6 mg/kg every 24 hours; cited from earlier work
plasma protein [7] = settings: healthy volunteers, escalating dose levels; cited from earlier work
patient [8] = settings: present case, rapid type
patients [9] = settings: cited from earlier work
patient [10] = settings: present case (case 37)

SMILES: CCCCCCCCCC(=O)N[C@@H](Cc1c[nH]c2ccccc12)C(=O)N[C@H](CC(N)=O)C(=O)N[C@@H](CC(=O)O)C(=O)N[C@@H]1C(=O)NCC(=O)N[C@@H](CCCN)C(=O)N[C@@H](CC(=O)O)C(=O)N[C@H](C)C(=O)N[C@@H](CC(=O)O)C(=O)NCC(=O)N[C@H](CO)C(=O)N[C@@H]([C@H](C)CC(=O)O)C(=O)N[C@@H](CC(=O)c2ccccc2N)C(=O)O[C@@H]1C [DAP, Daptomycin]
- Skin tests, prick-puncture administration and patch tests, reaction (patient [1]): negative
- percentage of plasma protein-bound DAP (plasma protein [2]): 87.8%
- myopathic symptoms, patients (patients [3]): 0.2%
- serum creatinine kinase (CK) elevation, patients (patients [3]): 2.8%
- drug lymphocyte stimulation test (DLST) reaction (T cells): negative
- patients who developed DAP-associated EP (patients [4]): 63 patients
- median plasma DAP Cmin [5]: 27400 ng/mL
- median plasma DAP Cmin [6]: 9130 ng/mL
- percentage of DAP plasma protein binding (plasma protein [7]): consistent across dose levels
- intracutaneous test reaction (patient [8]): positive
- intracutaneous test reaction (patient [8]; listed as daptomycin): positivity
- DAP Cmin associated with an increased probability of CK elevation (patients [9]): 24300 ng/mL
- Imaging findings (patient [10]; DAP 7 mg/kg): Bilateral, peripheral nodules and patchy consolidations
- Prognosis (patient [10]; initial treatment withdrawal): Recover
